# According to PMC5641092 (Oncotarget, 2017):
# Where two headings read alike, the source gives them in different places. Residues, ends and D or L forms follow the SMILES beside them.
# Key:
# [1] = system: human melanoma A375 xenografts; test: Mouse xenografts of human melanoma A375, intratumoral peptide treatment; type: in vivo, FOXN1 mice; conditions: day 1 and day 3, after first and second dose of 0.33 mg
# Method: 20 FOXN1 mice (Charles River Laboratories, Sulzfeld, Germany) were xenotransplanted with melanoma cells A375 subcutaneously in the right flank. The tumor was grown to a maximum length and width of 3 mm before peptide treatment was started (day 0). 9 mice were treated with peptide dissolved in buffer PBS (P), 5 mice were treated with pure buffer (C+), 5 mice were untreated (C-). Treatment occurred at days 0, 1, 6, 7, 8, 11 and 12 in 7 single doses by injection into the tumor. The total dose per mouse was 1.67 mg. The single doses applied at day 0 and 1 contained 0.33 mg peptide and the residual doses contained 0.20 mg. The tumor sizes were measured with manual calipers during the treatment time span. […]
# The tumor sections of peptide treated and untreated mice were evaluated for the following: tumor cell types (spindle, epithelioid, or mixed), tumor size, present/ absent necrosis or fibrosis. […] We performed Ki67 staining (Ki-67 rabbit primary antibody, 30-9; ready to use with Ventana iView DAB detection kit; Pretreatment: CC1mild; All Ventana Medical Systems, Inc, Tucson, Arizona).
# All values were presented as the mean ± SEM. In vivo data were analyzed by using the unpaired student's t test, p-values less than 0.001 were considered statistically significant.
# [2] = system: normal human dermal fibroblasts NHDF; test: MTS cell viability assay, NHDF; type: cell-based; conditions: 24 h, at least three experiments
# Description: The human malignant melanoma cell line A375 was purchased from ATCC (American Type Culture Collection, Manassas, Virginia, US) and cultured in Dulbecco's Modified Eagle Medium with GlutaMAX™ (DMEM, Gibco®, Thermo Fisher Scientific, USA) with addition of 10% FBS (Gibco®). Melanoma cell lines from primary (SBcl-2) and metastatic (WM164) lesions (kindly provided by Dr. Meenhard Herlyn, the Wistar Institute, Philadelphia, PA) and newly established primary cells MUG-Mel1 (manuscript Rinner et al., in preparation) were maintained in RPMI 1640 medium with GlutaMAX™ (Gibco®, Thermo Fisher Scientific, USA) supplemented with 2% FBS (fetal bovine serum; Gibco®). Normal human dermal fibroblasts NHDF, used as healthy control cells, purchased from PromoCell GmbH were cultured in fibroblast growth medium 2 (PromoCell GmbH). All cells were kept in a 5% CO2 atmosphere at 37°C. […]
# MTS viability assay-spectroscopy—Cell proliferation was measured by using CellTiter 96® Aqueous One Solution Cell Proliferation assay (Promega). […] The quantity of the formazan product as measured by the amount of 490 nm absorbance is directly proportional to the number of living cells in culture. Data are calculated as a percentage of the control (untreated) samples and represent the average of three wells in one experiment which was repeated three times per cell line.
# [3] = target: T1, pepsin from porcine gastric mucosa (Sus scrofa, UniProt P00791); test: Peptide stability in presence of pepsin at pH 2 (SDS-PAGE); type: in vitro ADME; conditions: pepsin in buffer pH 2, peptide:pepsin 10:1 weight ratio, 37°C, 1, 2 and 7 days
# T1 construct: pepsin from porcine gastric mucosa (Sigma-Aldrich, Deisenhofen, Germany); purchased Sigma-Aldrich, Deisenhofen, Germany; host or cells: porcine gastric mucosa
# T1 sequence (P00791 60-385): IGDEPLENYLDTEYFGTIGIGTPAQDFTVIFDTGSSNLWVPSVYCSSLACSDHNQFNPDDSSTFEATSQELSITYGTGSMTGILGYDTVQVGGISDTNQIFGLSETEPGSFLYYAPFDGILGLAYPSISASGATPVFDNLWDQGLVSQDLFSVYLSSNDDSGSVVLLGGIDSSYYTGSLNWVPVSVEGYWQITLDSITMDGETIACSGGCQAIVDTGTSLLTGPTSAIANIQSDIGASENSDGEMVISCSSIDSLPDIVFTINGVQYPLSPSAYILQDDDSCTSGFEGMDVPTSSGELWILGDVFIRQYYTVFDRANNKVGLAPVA
# Method: (§1) Peptide stability was tested in presence of bovine serum albumin (BSA, Sigma-Aldrich, Deisenhofen, Germany), fetal bovine serum (FBS, Gibco®), buffer pH 2 (30 mM citric acid/HCl, 60 mM NaCl), pH 10 (10 mM Tris/NaOH), and pepsin from porcine gastric mucosa (Sigma-Aldrich, Deisenhofen, Germany) in buffer pH 2. […] After the given time points aliquots were taken and diluted with electrophoresis loading buffer (2.5% SDS) heated for 5 minutes at 95°C and analyzed by SDS-gel electrophoreses (BioRad, Mini-PROTEAN Tetra System). As standard the Ultra-low Range Molecular Weight Marker M3546 (Sigma-Aldrich, Deisenhofen, Germany) was used. For analysis of binding to BSA after 7 days respective samples were taken and loaded on Amicon Ultra-0.5 ml Centrifugal Filters (Ultracel-10K) (Merck Millipore, Tullagreen, IRL). After centrifugation (14.000g, 30 minutes, 4°C) the filtrate was analyzed for amount of non-BSA-bound peptide by measurement of UV-absorbance of tryptophan at 280 nm. The filtrate (free) peptide amount was corrected with the peptide loss during the filtration process by a control experiment with defined peptide amount.
# [4] = Side effects after subcutaneous injection of peptide into the flank; type: in vivo, mice
# Method: To test further potential side effects of the peptide in vivo, 3 mice were injected subcutaneously into the flank with 9 doses of peptide to a total amount of 0.68 mg per mouse over 3 weeks. Then the skin at injection site, liver, kidney, spleen, and weight were checked for abnormal changes (Supplementary Figure 1, liver and kidney).
# [5] = target: T2, bovine serum albumin (BSA) (Bos taurus, UniProt P02769); test: Binding to BSA (centrifugal filtration, UV 280 nm); conditions: after 7 days of incubation at 37°C, Amicon Ultracel-10K filtration, corrected for filtration loss
# T2 construct: purchased Sigma-Aldrich, Deisenhofen, Germany
# T2 sequence (P02769 25-607): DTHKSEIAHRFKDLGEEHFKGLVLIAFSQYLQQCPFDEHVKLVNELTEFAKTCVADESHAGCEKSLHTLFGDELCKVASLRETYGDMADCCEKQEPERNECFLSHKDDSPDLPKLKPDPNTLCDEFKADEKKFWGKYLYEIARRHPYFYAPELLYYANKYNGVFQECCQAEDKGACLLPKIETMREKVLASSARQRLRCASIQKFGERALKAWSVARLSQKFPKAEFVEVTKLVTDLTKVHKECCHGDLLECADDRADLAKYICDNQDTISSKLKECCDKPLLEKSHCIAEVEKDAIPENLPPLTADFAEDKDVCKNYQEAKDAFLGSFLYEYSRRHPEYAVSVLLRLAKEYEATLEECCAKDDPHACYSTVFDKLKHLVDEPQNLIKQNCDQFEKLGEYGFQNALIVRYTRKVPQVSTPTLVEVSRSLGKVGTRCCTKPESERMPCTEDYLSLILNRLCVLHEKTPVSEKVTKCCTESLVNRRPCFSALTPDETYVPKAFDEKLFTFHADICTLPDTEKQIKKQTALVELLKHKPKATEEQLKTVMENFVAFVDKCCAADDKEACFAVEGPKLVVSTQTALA
# Method: (§2) Peptide stability was tested in presence of bovine serum albumin (BSA, Sigma-Aldrich, Deisenhofen, Germany), fetal bovine serum (FBS, Gibco®), buffer pH 2 (30 mM citric acid/HCl, 60 mM NaCl), pH 10 (10 mM Tris/NaOH), and pepsin from porcine gastric mucosa (Sigma-Aldrich, Deisenhofen, Germany) in buffer pH 2. Therefore peptide samples were incubated in presence of 1:1 weight ratios (10:1 in presence of pepsin) with the mentioned components or in presence of buffer (pH 2 or 10) for 1 day, 6 days and 7 days at 37°C. After the given time points aliquots were taken and diluted with electrophoresis loading buffer (2.5% SDS) heated for 5 minutes at 95°C and analyzed by SDS-gel electrophoreses (BioRad, Mini-PROTEAN Tetra System). As standard the Ultra-low Range Molecular Weight Marker M3546 (Sigma-Aldrich, Deisenhofen, Germany) was used. For analysis of binding to BSA after 7 days respective samples were taken and loaded on Amicon Ultra-0.5 ml Centrifugal Filters (Ultracel-10K) (Merck Millipore, Tullagreen, IRL). After centrifugation (14.000g, 30 minutes, 4°C) the filtrate was analyzed for amount of non-BSA-bound peptide by measurement of UV-absorbance of tryptophan at 280 nm. The filtrate (free) peptide amount was corrected with the peptide loss during the filtration process by a control experiment with defined peptide amount.
# [6] = Complete blood count of xenografted mice; type: in vivo, FOXN1 mice; conditions: 7 mice
# Method: 20 FOXN1 mice (Charles River Laboratories, Sulzfeld, Germany) were xenotransplanted with melanoma cells A375 subcutaneously in the right flank. The tumor was grown to a maximum length and width of 3 mm before peptide treatment was started (day 0). […] Treatment occurred at days 0, 1, 6, 7, 8, 11 and 12 in 7 single doses by injection into the tumor. The total dose per mouse was 1.67 mg. The single doses applied at day 0 and 1 contained 0.33 mg peptide and the residual doses contained 0.20 mg. The tumor sizes were measured with manual calipers during the treatment time span. At day 15 the mice were sacrificed and the tumors were isolated and examined together with the organs of the mice after paraffin embedment and staining of four-micron sections with hematoxylin and eosin. All animal work was done in accordance with the protocol approved by the institutional animal care and use committee at the Austrian Federal Ministry for Science and Research (BMWF) (vote 66.010/0160-II/3b/2012).
# [7] = target: T2, bovine serum albumin (BSA); test: Peptide stability in presence of BSA (SDS-PAGE); type: in vitro ADME; conditions: BSA 1:1 weight ratio, 37°C, 1, 6 and 7 days
# Method: as §2
# [8] = Peptide stability in presence of fetal bovine serum (SDS-PAGE); type: in vitro ADME; conditions: FBS 1:1 weight ratio, 37°C
# Method: as §1
# malignant melanoma = conditions: cited from earlier work; for response rates: malignant melanoma patients, ref [26], [27]
# Description: Though, the specific target PS has been described to be exposed by numerous cancer types, we decided to focus on treatment of a cancer type with poor prognosis and limited therapy options, like malignant melanoma. […] In 1960s the risk to develop malignant melanoma was 1:600, whereas today it is 1:75 to 1:100 [23]. Further it exerts high tendency to metastasize and is mainly chemo-resistant. Thus the long-standing applied treatment with the methylating agent dacarbazine or its oral analogue temozolomide only yie ...
# [9] = 3 mice, 9 s.c. doses, total 0.68 mg per mouse over 3 weeks
# [10] = vemurafenib compared to dacarbazine, ref [30]
compound,measurement,setting,value
CC[C@H](C)[C@H](NC(=O)[C@H](CCCNC(=N)N)NC(=O)[C@@H](NC(=O)[C@H](CCCNC(=N)N)NC(=O)[C@H](CCCNC(=N)N)NC(=O)[C@@H]1CCCN1C(=O)[C@H](CCCNC(=N)N)NC(=O)[C@H](CCCNC(=N)N)NC(=O)[C@@H](NC(=O)[C@H](CCCNC(=N)N)NC(=O)[C@@H](NC(=O)[C@H](CCCNC(=N)N)NC(=O)[C@H](Cc1c[nH]c2ccccc12)NC(=O)[C@@H]1CCCN1)[C@@H](C)CC)[C@@H](C)CC)[C@@H](C)CC)C(=O)N[C@@H](CCCNC(=N)N)C(=O)N[C@@H](Cc1c[nH]c2ccccc12)C(=O)N1CCC[C@H]1C(N)=O [R-DIM-P-LF11-334] (H-PWRIRIRRPRRIRIRWP-NH2),local reaction at tumor after intratumoral injection,[1],in some cases a wound developed
same,LC50 MTS,[2],> 90 µM
same,cleavage in presence of pepsin,[3],no visible cleavage
same,inflammation after subcutaneous injection,[4]; [9],No inflammation occurred
same,"organs (skin at injection site, liver, kidney, spleen)",[4]; [9],unsuspicious
same,weight gain,[4]; [9],normal
same,effect in liver and kidney (H&E sections),"[4]; s.c. treatment, 9 doses, Supplementary Figure 1",No effect
same,binding of the peptide to BSA,[5],approximately 75%
same,Bas,[6]; +P,0.68%
same,EVB-CV,[6]; +P,19.44%
same,EVB-SD,[6]; +P,35.95 fL
same,MERY,[6]; +P,0.34%
same,MTHR,[6]; +P,8.13%
same,Medn,[6]; +P,4.14 fL
same,Mod,[6]; +P,3.05 fL
same,Other (leukocytes),[6]; +P,2.30%
same,TKT,[6]; +P,0.43%
same,μERY,[6]; +P,16.00%
same,μTHR,[6]; +P,16.54%
same,Mon,"[6]; +P, normal range 1-5",4.46%
same,MPV,"[6]; +P, normal range 3-8",5.91 fL
same,TVB,"[6]; +P, normal range 6-10",10.10
same,Erythrocytes ERY,"[6]; +P, normal range 6-11",8.53 10^6/μl
same,MCH,"[6]; +P, normal range 13-22",16.5 pg
same,Hb,"[6]; +P, normal range 14-18",14.06 g/dL
same,MCHC,"[6]; +P, normal range 24-40",32.85 g/dL
same,Hct,"[6]; +P, normal range 35-45",42.81%
same,MCV,"[6]; +P, normal range 35-50",50.18 fL
same,Lym,"[6]; +P, normal range 70-81, marked ↑",82.28%
same,Thrombocytes THR,"[6]; +P, normal range 100-600, marked ↑",705.00 10^3/μl
same,Eos,"[6]; +P, normal range <10",1.33%
same,Leukocytes LEU,"[6]; peptide treated xenograft mice (+P), normal range 4-10",6.13 10^3/μl
same,degradation of peptide by BSA,[7],no degrading effect
same,incubation time in FBS before amount of peptide is reduced,[8],more than 1 day
same,peptide remaining in FBS after 6 days,[8],no peptide was detectable
same,period of stability / complete activity in presence of FBS (blood components),[8],24 h
same,fraction of peptide left in FBS after 2 days,[8]; data not shown,about 1/3
CN(C)/N=N/c1[nH]cnc1C(N)=O [dacarbazine],response rates,malignant melanoma,about 15%
same,"percentage of 5 years survival, solely dacarbazine",malignant melanoma; ref [29],8%
same,median survival,malignant melanoma; [10],9.7 months
Cn1nnc2c(C(N)=O)ncn2c1=O [temozolomide],response rates,malignant melanoma,about 15%
CCCS(=O)(=O)Nc1ccc(F)c(C(=O)c2c[nH]c3ncc(-c4ccc(Cl)cc4)cc23)c1F [vemurafenib],median survival,malignant melanoma; [10],13.6 months
"ipilimumab: immunotherapy approved by the FDA in 2011, blocks the T-cell inhibition of CTLA-4",median survival,"malignant melanoma; melanoma patients, ref [28]",12.7 months
same,"percentage of 5 years survival, in combination with dacarbazine","malignant melanoma; patients treated with ipilimumab in combination with dacarbazine, ref [29]",18%
